Experimental data: patent publication US10188634B2, “3-(3H-imidazo[4,5-C]pyridin-2-yl)-1 H-pyrazolo[4,3-B]pyridines and therapeutic uses thereof” (Samumed, LLC, priority 2015, dated 2019)

Experiments:
Assay type in all cases: cell-based
SW480 colon cancer cells = assay: Cell viability assay (CellTiter-Blue) in SW480 colon cancer cells; settings: Homo sapiens, 96 h; for inhibition at 10 µM: four days, CellTiter-Blue, read-out: percent inhibition at 10 μM (given for EC50 of >10 μM); for EC50: four days incubation, CellTiter-Blue cell viability
Procedure, shortened: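 About 2×10^3 SW480 colon cancer cells per well were exposed to compound (8-point 1:3 dilutions, 10 μM to 0.004 μM) for four days at 37 °C. Viability was read by CellTiter-Blue resazurin reduction (~3 h, Ex 560/Em 590). EC50 from nonlinear regression; above 10 μM, % inhibition at 10 μM is reported.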

[1] = test system: primary human mesenchymal stem cells (hMSCs); assay: Induction of chondrogenesis in primary human mesenchymal stem cells (hMSCs), nodule imaging with Rhodamine B / Nile Red; settings: for Emax: hMSCs chondrogenesis, TGF-β3 (10 ng/mL) as positive control, read-out: Max. Activity as % TGF-β3 activity; for EC50: hMSCs, concentration required to induce 50% levels of chondrogenesis vs TGF-β3 positive control, read-out: Conc (nM) of 50% TGF-β3 activity
Description: Representative compounds were screened using primary human mesenchymal stem cells (hMSCs) to determine their ability to induce chondrogenesis (process by which cartilage is developed).
Human Mesenchymal Stem Cell Culture: Primary human mesenchymal stem cells (hMSCs) were purchased from Lonza (Walkersville, Md.) and expanded in Mesenchymal Stem Cell Growth Media (Lonza). Cells between passage 3 and 6 were used for the experiments.
Compound Screening: Each compound was dissolved in DMSO as a 10 mM stock and used to prepare compound source plates. For the 96 well assay, serial dilution (1:3, 6-point dose-response curves from 2700 nM to 10 nM) and compound transfer was performed using the ECHO 550 (Labcyte, Sunnyvale, Calif.) into 96-well clear bottom assay plates (Greiner Bio-One) with appropriate DMSO backfill for a final DMSO concentration of 0.03%. hMSCs were plated at 20,000 cells/well in 250 μL/well Incomplete Chondrogenic Induction Medium (Lonza; DMEM, dexamethasone, ascorbate, insulin-transferrin-selenium [ITS supplement], gentamycin-amphotericin [GA-1000], sodium pyruvate, proline and L-glutamine). TGF-β3 (10 ng/mL) was used as a positive control for differentiation while negative control wells were treated with 75 nL DMSO for normalization and calculating EC50 values. For the 384 well assay, serial dilution (1:3, 8-point dose-response curves from 5000 nM to 2.2 nM) and compound transfer was performed using the ECHO 550 (Labcyte, Sunnyvale, Calif.) into 384-well clear bottom assay plates (Greiner Bio-One) with appropriate DMSO backfill for a final DMSO concentration of 0.03%. hMSCs were plated at 8,000 cells/well in 80 μL/well Incomplete Chondrogenic Induction Medium (Lonza; DMEM, dexamethasone, ascorbate, insulin-transferrin-selenium [ITS supplement], gentamycin-amphotericin [GA-1000], sodium pyruvate, proline and L-glutamine). TGF-β3 (10 ng/mL) was used as a positive control for differentiation while negative control wells were treated with 25 nL DMSO for normalization and calculating EC50 values. Cells were incubated at 37° C. and 5% CO2 for 6 days. To image chondrogenic nodules, the cells were fixed using 4% formaldehyde (Electron Microscopy Sciences), and stained with 2 μg/mL Rhodamine B (Sigma-Aldrich) and 20 μM Nile Red (Sigma-Aldrich) [Johnson K., et.al, A Stem Cell-Based Approach to Cartilage Repair, Science, (2012), 336(6082). 717-721]. The nodules imaged (25 images per well for 96 well plates and 9 images per well for 384 well plates at 10× magnification) by excitation at 531 nm and emission at 625 nm and quantified using the CellInsight CX5 (Thermo Scientific). Area of nodules in each well was normalized to the average of 3 DMSO treated wells on the same plate using Excel (Microsoft Inc.). The normalized averages (fold change over DMSO) of 2 or 3 replicate wells for each compound concentration were calculated. Due to solubility limitations of some of the compounds, curve fitting was incomplete leading to inaccurate EC50 determinations.
Using TGF-β3 as a positive control, the concentration of representative compounds required to induce 50% levels of chondrogenesis is reported. In addition, the maximum activity of each compound and the respective dose that each compound reached maximum chondrogenesis activity is reported.

[2] = test system: Wnt activity (Sp5-Luc reporter, human Sp5 promoter with eight TCF/LEF binding sites) in SW480 colon carcinoma cells; assay: Screening assay for Wnt activity: Sp5-Luc reporter gene assay in SW480 cells; settings: for inhibition at 10 µM: read-out: percent inhibition at 10 μM (given for EC50 of >10 μM); for EC50: 10-point dose-response starting from 10 μM, overnight incubation
Procedure, shortened: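 SW480 cells stably carrying Sp5-Luc reporter (eight TCF/LEF sites) plated at 4,000/well in 1% FBS medium with compound (10-point 1:3 series from 10 μM, 0.1% DMSO) overnight at 37 °C. BrightGlo luminescence normalized to DMSO; EC50 by four-parameter fit, else % inhibition at 10 μM.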

SMILES	EC50 (SW480 colon cancer cells) [µM]	EC50 [1] [nM]	EC50 [2] [µM]	inhibition at 10 µM (SW480 colon cancer cells) [%]	Emax [1] [%]	inhibition at 10 µM [2] [%]
CCC(=O)Nc1cncc(-c2ccc3[nH]nc(-c4nc5c(-c6cccs6)cncc5[nH]4)c3n2)c1 [Compound 309, N-(5-(3-(7-(Thiophen-2-yl)-3H-imidazo[4,5-c]pyridin-2-yl)-1H-pyrazolo[4,3-b]pyridin-5-yl)pyridin-3-yl)propionamide]	> 10	30	> 10	0	80	2.4
Fc1cccc(-c2cncc3[nH]c(-c4n[nH]c5ccc(C6CCNCC6)nc45)nc23)c1 [Compound 477, 3-(7-(3-Fluorophenyl)-3H-imidazo[4,5-c]pyridin-2-yl)-5-(piperidin-4-yl)-1H-pyrazolo[4,3-b]pyridine]	> 10		> 10	1.8	43	20
COc1cccc(-c2cncc3[nH]c(-c4n[nH]c5ccc(-c6cncc(NC(=O)C7CCCCC7)c6)nc45)nc23)c1 [Compound 967, N-(5-(3-(7-(3-Methoxylphenyl)-3H-imidazo[4,5-c]pyridin-2-yl)-1H-pyrazolo[4,3-b]pyridin-5-yl)pyridin-3-yl)cyclohexanecarboxamide]	> 10	10	> 10	10.8	80	0
CC(C)C(=O)Nc1cncc(-c2ccc3[nH]nc(-c4nc5c(-c6cccnc6)cncc5[nH]4)c3n2)c1 [Compound 93, N-(5-(3-(7-(Pyridin-3-yl)-3H-imidazo[4,5-c]pyridin-2-yl)-1H-pyrazolo[4,3-b]pyridin-5-yl)pyridin-3-yl)isobutyramide]	> 10	1670	> 10	6.3	336	18.3
Cc1ccc(-c2cncc3[nH]c(-c4n[nH]c5ccc(-c6cncc(NC(=O)C(C)C)c6)nc45)nc23)s1 [Compound 373, N-(5-(3-(7-(5-Methylthiophen-2-yl)-3H-imidazo[4,5-c]pyridin-2-yl)-1H-pyrazolo[4,3-b]pyridin-5-yl)pyridin-3-yl)isobutyramide]	> 10		> 10	2.6	42	16.1
CCNCc1cncc(-c2ccc3[nH]nc(-c4nc5c(-c6cc(F)cc(NCCN(C)C)c6)cncc5[nH]4)c3n2)c1 [Compound 426, N^1-(3-(2-(5-(5-((Ethylamino)methyl)pyridin-3-yl)-1H-pyrazolo[4,3-b]pyridin-3-yl)-3H-imidazo[4,5-c]pyridin-7-yl)-5-fluorophenyl)-N^2,N^2-dimethylethane-1,2-diamine]	> 10	1670	> 10	4.4	66	8.8
CCCCC(=O)Nc1cncc(-c2ccc3[nH]nc(-c4nc5c(-c6ccoc6)cncc5[nH]4)c3n2)c1 [Compound 299, N-(5-(3-(7-(Furan-3-yl)-3H-imidazo[4,5-c]pyridin-2-yl)-1H-pyrazolo[4,3-b]pyridin-5-yl)pyridin-3-yl)pentanamide]	> 10	10	> 10	6.7	74	14.7
CCCC(=O)Nc1cncc(-c2ccc3[nH]nc(-c4nc5c(-c6cc(F)cc(CNS(C)(=O)=O)c6)cncc5[nH]4)c3n2)c1 [Compound 465, N-(5-(3-(7-(3-Fluoro-5-(methylsulfonamidomethyl)phenyl)-3H-imidazo[4,5-c]pyridin-2-yl)-1H-pyrazolo[4,3-b]pyridin-5-yl)pyridin-3-yl)butyramide]	> 10		> 10	1.8	39	28

Further lines, with some results ahead:

EC50 (SW480 colon cancer cells) [µM]	EC50 [1] [nM]	EC50 [2] [µM]	SMILES	inhibition at 10 µM (SW480 colon cancer cells) [%]	Emax [1] [%]	inhibition at 10 µM [2] [%]
> 10	7	> 10	Cc1ncc(-c2ccc3[nH]nc(-c4nc5c(-c6cccc(F)c6)cncc5[nH]4)c3n2)s1 [Compound 1081, 5-(3-(7-(3-Fluorophenyl)-3H-imidazo[4,5-c]pyridin-2-yl)-1H-pyrazolo[4,3-b]pyridin-5-yl)-2-methylthiazole]	23.5	81	38
> 10	10	> 10	Nc1cncc(-c2ccc3[nH]nc(-c4nc5c(-c6ccccc6F)cncc5[nH]4)c3n2)c1 [Compound 59, 5-(3-(7-(2-Fluorophenyl)-3H-imidazo[4,5-c]pyridin-2-yl)-1H-pyrazolo[4,3-b]pyridin-5-yl)pyridin-3-amine]	0	98	7
4.74	10	> 10	CN(C)Cc1cncc(-c2ccc3[nH]nc(-c4nc5c(-c6cccs6)cncc5[nH]4)c3n2)c1 [Compound 321, N,N-dimethyl-1-(5-(3-(7-(thiophen-2-yl)-3H-imidazo[4,5-c]pyridin-2-yl)-1H-pyrazolo[4,3-b]pyridin-5-yl)pyridin-3-yl)methanamine]		79	19.2
> 10	10	> 10	CC(C)C(=O)Nc1cncc(-c2ccc3[nH]nc(-c4nc5c(-c6ccccc6F)cncc5[nH]4)c3n2)c1 [Compound 65, N-(5-(3-(7-(2-fluorophenyl)-3H-imidazo[4,5-c]pyridin-2-yl)-1H-pyrazolo[4,3-b]pyridin-5-yl)pyridin-3-yl)isobutyramide]	0	181	1
> 10	2	> 10	Fc1cccc(-c2cncc3[nH]c(-c4n[nH]c5ccc(-c6cnccn6)nc45)nc23)c1 [Compound 492, 3-(7-(3-Fluorophenyl)-3H-imidazo[4,5-c]pyridin-2-yl)-5-(pyrazin-2-yl)-1H-pyrazolo[4,3-b]pyridine]	7.5	67	13
> 10		> 10	CCNCc1cncc(-c2ccc3[nH]nc(-c4nc5c(-c6ccccn6)cncc5[nH]4)c3n2)c1 [Compound 146, N-((5-(3-(7-(Pyridin-2-yl)-3H-imidazo[4,5-c]pyridin-2-yl)-1H-pyrazolo[4,3-b]pyridin-5-yl)pyridin-3-yl)methyl)ethanamine]	26.9	50	14.2
> 10		> 10	Cc1cnc(-c2ccc3[nH]nc(-c4nc5c(-c6cccc(F)c6)cncc5[nH]4)c3n2)s1 [Compound 1082, 2-(3-(7-(3-Fluorophenyl)-3H-imidazo[4,5-c]pyridin-2-yl)-1H-pyrazolo[4,3-b]pyridin-5-yl)-5-methylthiazole]	11.5	45	27
